In US20260042754A1, “Substituted Bicyclic Heteroaryl Sulfonamide Derivatives for the Treatment of Cancer” (NODUS ONCOLOGY LIMITED, priority 2022, published 2026):

Biological target: human PARG (PARG-NanoLuc fusion in HEK293T cells) (Homo sapiens (Human), UniProt Q86W56)
Test: PARG NanoBRET-based cellular target engagement assay
Assay type: cell-based
Settings: HEK293T cells transfected with PARG-NanoLuc, NanoBRET probe 0.89 μM, 2 hours; read-out: PARG TE IC50
Summary of the method: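 HEK293T cells transiently expressing full-length human PARG with C-terminal NanoLuc, plated 24 h, then given compound (8-point series, 0.5% DMSO) for 15 min at room temperature. NanoBRET tracer added at 0.89 μM final, 2 h at 37° C.; BRET ratio (460/645 nm) fitted by 4-parameter logistic to give IC50.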

Sequence of human PARG (PARG-NanoLuc fusion in HEK293T cells) (Q86W56 whole entry, the tested form may be a part): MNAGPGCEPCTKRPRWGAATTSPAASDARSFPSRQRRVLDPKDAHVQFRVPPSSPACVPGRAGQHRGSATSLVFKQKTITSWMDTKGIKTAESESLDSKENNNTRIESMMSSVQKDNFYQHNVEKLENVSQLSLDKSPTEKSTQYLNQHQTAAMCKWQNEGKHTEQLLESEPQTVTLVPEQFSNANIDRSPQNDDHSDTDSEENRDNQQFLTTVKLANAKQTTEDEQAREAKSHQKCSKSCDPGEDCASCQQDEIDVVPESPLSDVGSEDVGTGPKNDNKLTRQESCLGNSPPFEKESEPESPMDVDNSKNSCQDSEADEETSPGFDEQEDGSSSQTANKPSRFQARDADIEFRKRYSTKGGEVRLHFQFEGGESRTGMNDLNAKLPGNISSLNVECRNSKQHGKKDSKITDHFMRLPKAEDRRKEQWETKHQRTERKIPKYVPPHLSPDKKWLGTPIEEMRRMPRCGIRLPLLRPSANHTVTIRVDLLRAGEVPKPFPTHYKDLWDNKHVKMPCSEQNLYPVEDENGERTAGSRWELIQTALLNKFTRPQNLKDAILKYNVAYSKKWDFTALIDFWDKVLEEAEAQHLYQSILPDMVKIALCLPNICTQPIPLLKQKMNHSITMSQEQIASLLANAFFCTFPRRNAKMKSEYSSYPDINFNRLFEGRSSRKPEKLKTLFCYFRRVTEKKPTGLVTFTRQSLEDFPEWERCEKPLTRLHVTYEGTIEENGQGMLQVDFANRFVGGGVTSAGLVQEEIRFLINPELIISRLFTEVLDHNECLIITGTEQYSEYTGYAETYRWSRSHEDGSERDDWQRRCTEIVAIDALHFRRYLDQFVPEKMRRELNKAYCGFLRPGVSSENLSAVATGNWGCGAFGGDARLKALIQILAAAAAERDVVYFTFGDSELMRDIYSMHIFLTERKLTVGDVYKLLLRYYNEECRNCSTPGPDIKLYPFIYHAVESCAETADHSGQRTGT

Row | Structure (SMILES) | IC50 [nM]
1 | CO/N=c1\[nH]c2c(-c3ccc(C(=O)N(C)C)cc3)cc(S(=O)(=O)NC3(C)CC3)cc2c(=O)n1Cc1cnn(C)c1 [Example 5, 4-[2-methoxyimino-6-[(1-methylcyclopropyl)sulfamoyl]-3-[(1-methylpyrazol-4-yl)methyl]-4-oxo-1H-quinazolin-8-yl]-N,N-dimethyl-benzamide] | < 30
2 | CO/N=c1\[nH]c2ccc(S(=O)(=O)NC3(C)CC3)cc2c(=O)n1Cc1cnc(C)s1 [Example 1, 2-methoxyimino-N-(1-methylcyclopropyl)-3-[(2-methylthiazol-5-yl)methyl]-4-oxo-1H-quinazoline-6-sulfonamide] | 30 to 99
3 | Cc1nc(C)c(CO/N=c2\[nH]c3ccc(S(=O)(=O)NC4(C)CC4)cc3c(=O)n2Cc2cnn(C)c2)s1 [Example 3, 2-[(2,4-dimethylthiazol-5-yl)methoxyimino]-N-(1-methylcyclopropyl)-3-[(1-methylpyrazol-4-yl)methyl]-4-oxo-1H-quinazoline-6-sulfonamide] | 100 to 1000
4 | CON=c1[nH]c2c(N3CCN(C(=O)C4(C)CC4)[C@H](C)C3)cc(S(=O)(=O)NC3(C)CC3)cc2c(=O)n1Cc1cnn(C)c1 [Example 8, 2-methoxyimino-N-(1-methylcyclopropyl)-3-[(1-methylpyrazol-4-yl)methyl]-4-oxo-8-[(3R)-3-methyl-4-(1-methylcyclopropanecarbonyl)piperazin-1-yl]-1H-quinazoline-6-sulfonamide] | < 30
5 | CO/N=c1\[nH]c2c(N3CCN[C@H](C)C3)cc(S(=O)(=O)NC3(C)CC3)cc2c(=O)n1Cc1cnn(C)c1 [Example 7, 2-methoxyimino-N-(1-methylcyclopropyl)-3-[(1-methylpyrazol-4-yl)methyl]-4-oxo-8-[(3R)-3-methylpiperazin-1-yl]-1H-quinazoline-6-sulfonamide] | < 30
6 | CO/N=c1\[nH]c2ccc(S(=O)(=O)NC3(C)COC3)cc2c(=O)n1Cc1cnn(C)c1 [Example 2, 2-methoxyimino-N-(3-methyloxetan-3-yl)-3-[(1-methylpyrazol-4-yl)methyl]-4-oxo-1H-quinazoline-6-sulfonamide] | 100 to 1000
